Series [1] in a line: NRVM neonatal rat cardiomyocyte cytotoxicity assay. Format: cell-based. Conditions: freshly harvested neonatal cardiomyocytes (NRVM). Here is the method:
Compounds were tested in a high-throughput 384-well assay format for cytotoxicity against freshly harvested neonatal rat cardiomyocytes (NRVM). Cells were diluted in media (DMEM+10% FBS+1% PSG+1% NEAA) to 25,000 cells/mL, plated at 90 ul per well in 384 well cell assay plates and incubated overnight at 37° C. and 5% CO2 before compound addition. Compounds were prepared by serial dilution (1:3) in 100% DMSO in 384-well plates in quadruplicate. 400 nL/well of compound were transferred into cell assay plates via Biocel (Agilent Technologies). DMSO and 2 mM Puromycin were included as negative and positive controls respectively. After 5 days, plates are washed 1× w/ 100 ul/well PBS with Biotek plate washer, and 20 μL of Cell Titer Glo was added to each well. Plates were incubated 10 min and read on EnVision reader (Perkin Elmer). […] CC50 values were calculated in Accord (on-line tool) using a one-site dose-response model to generate sigmoidal curve fits.

A further series in a line: HEp-2 cytotoxicity assay. Format: cell-based. Conditions: human, HEp-2 cells (uninfected), 4-5 days. Here is the method:
Cytotoxicity of the compound of Formula I and compounds 1, 2, and 6 was determined in uninfected cells using the cell viability reagent in a similar fashion as described before for other cell types (Cihlar et al., Antimicrob Agents Chemother. 2008, 52(2):655-65.). HEp-2 (1.5×10^3 cells/well) and MT-4 (2×10^3 cells/well) cells were plated in 384-well plates and incubated with the appropriate medium containing 3-fold serially diluted compound ranging from 15 nM to 100,000 nM. Cells were cultured for 4-5 days at 37° C. Following the incubation, the cells were allowed to equilibrate to 25° C., and cell viability was determined by adding Cell-Titer Glo viability reagent. The mixture was incubated for 10 min, and the luminescence signal was quantified using an Envision plate reader. Untreated cell and cells treated at 2 μM puromycin (Sigma, St. Louis, MO) serve as 100% and 0% cell viability control, respectively.

Another series has as its system HRV1a. Kind of series: HRV1A HeLa EC50. The format is cell-based, human rhinovirus. Conditions: for EC50: Human rhinovirus sp., HRV1A, HeLa, 96 h, read-out: HRV1A HeLa EC50. Here is the method:
H1-HeLa cells, cultured in complete RPMI 1640 medium containing 10% heat-inactivated FBS and 1% Penicillin/Streptomycin, were seeded in 96 well plates at 5000 cells/well one day prior to compound dosing and infection. The antiviral activity of each compound was measured in triplicate. Compounds were added directly to the cell cultures in serial 3-fold dilutions using the HP300 digital dispenser (Hewlett Packard, Palo Alto, CA) immediately prior to infection. The plates were transferred to BSL-2 containment and 100 μL of 1/4000 dilution of HRV1a virus stock was added to each well containing cells and serially diluted compounds. Each plate included 6 wells of infected untreated cells and 6 wells of cells containing 5 μM Rupintrivir that served as 0% and 100% virus inhibition control, respectively. Following the infection, test plates were incubated for 96 h in a tissue culture incubator set to 37° C./5% CO2. Following incubation, the H1-HeLa cells were removed from incubation and allowed to equilibrate to 25° C. Cell viability was determined by removing 100 μL of culture medium and adding 100 μL of Cell-Titer Glo viability reagent. The mixtures were incubated on a shaker for 10 minutes at 25° C., and the luminescence signal was quantified on an Envision luminescence plate reader.

The test system of the next series is HRV16. Kind of series: HRV16 HeLa EC50. The format is cell-based, human rhinovirus. Conditions: for EC50: Human rhinovirus sp., HRV16, H1-HeLa cells, 96 h, 33° C. As for the experimental part: H1-HeLa cells, cultured in complete DMEM medium containing 10% heat-inactivated FBS and 1% Penicillin/Streptomycin, were seeded in 96 well plates at 3000 cells/well one day prior to compound dosing and infection. The antiviral activity of each compound was measured in triplicate. Compounds were added directly to the cell cultures in serial 3-fold dilutions using the HP300 digital dispenser (Hewlett Packard, Palo Alto, CA) immediately prior to infection. The plates were transferred to BSL-2 containment and the appropriate dilution of virus stock, previously determined by titration and prepared in cell culture media, was added to test plates containing cells and serially diluted compounds. Each plate included 6 wells of infected untreated cells and 6 wells of uninfected cells that served as 0% and 100% virus inhibition control, respectively. Following the infection, test plates were incubated for 96 h in a tissue culture incubator set to 33° C./5% CO2. Following incubation, the H1-HeLa cells were removed from incubation and allowed to equilibrate to 25° C. Cell viability was determined by removing 100 μL of culture medium and adding 100 μL of Cell-Titer Glo viability reagent. The mixtures were incubated on a shaker for 10 minutes at 25° C., and the luminescence signal was quantified on an Envision luminescence plate reader.

Another series is described as follows: PBMC cytotoxicity assay. Format: cell-based. The note with it: human, cryopreserved PBMCs. Here is the method:
Compounds were tested in a high-throughput 384-well assay format for cytotoxicity in cryopreserved human PBMCs. Compounds were serially diluted (1:3) in 100% DMSO in 384-well plates in quadruplicate. An acoustic dispenser was used to transfer 310 nL of compound into assay plates. DMSO and 2 mM Puromycin were included as negative and positive controls respectively. Cells were diluted in media (RPMI+10% FBS+1% PSG+10 mM Hepes+1% Pyruvate+0.1% BMe) to 72K cells/mL and allowed to rest for 4 hours in an incubator at 37° C. and 5% CO2 before plating into prespotted assay plates at 70 uL/well. After 5 days, 25 μL of Cell Titer Glo was added to the assay plates. […] CC50 values were calculated in Accord (on-line tool) using a one-site dose-response model to generate sigmoidal curve fits.

The nature of a further series: PRPT cytotoxicity assay. The note with it: human, primary renal proximal tubule epithelial cells (PRPTEC); 5-day incubation. The format is cell-based. Here is the method:
The PRPT cytotoxicity assays on the compound of Formula I and compounds 1, 2 and 6 were conducted using the following protocol.
Cryopreserved human primary renal proximal tubule epithelial cells (PRPTEC), were obtained from LifeLine Cell Technology (Frederick, MD, Cat #FC-0013) and isolated from the tissue of human kidney. The cells were cultured with RenaLife completed medium (LifeLine, Frederick, MD, Cat #LL-0025) in T75 flask for 3 to 4 days from cryopreserved vial, before the cells were seeded to assay plates after 90% confluence. PRPTEC cells were plated at a density of 5×10^3 cells per well in collagen coated 96-well plate with a final volume of […] per well. On next day, the compound was added to cell plates directly using HP D300 Dispenser (Hewlett-Packard, Palo Alto, CA) with program starting at 200 fold lower than the compound stock concentration, and 1:3 fold dilution in duplicates with constant amount of DMSO equal to 0.5%. After 5-day incubation, culture medium was removed, cell viability was measured by addition of […] per well of CellTiter Glo viability reagent (Promega, Madison, WI, Cat #G7573) and the luminescence signal was quantified on a Luminescence plate reader (Perkin-Elmer, Waltham, MA).

As for `CCOC(=O)[C@H](C)NP(=O)(OC[C@@]1(C#N)O[C@@H](c2ccc3c(N)ncnn23)[C@H](O)[C@@H]1O)Oc1ccccc1` (some centres unmarked) [Compound 1, reference compound], the values for the CC50 at 5 days (in series [1]; in the series “PBMC cytotoxicity assay”) were more than 44.4 µM and 18.2 µM, respectively. Moreover, the CC50 in “HEp-2 cytotoxicity assay” was more than 91.5 µM. Further, the values for the EC50 with HRV1a and in the series on HRV16 were 0.409 µM and 0.959 µM, respectively.
As to `CCC(CC)COC(=O)[C@H](C)NP(=O)(OC[C@@]1(C#N)O[C@@H](c2ccc3c(N)ncnn23)[C@H](O)[C@@H]1O)Oc1ccccc1` (some centres unmarked) [Compound 2, reference compound], the CC50 at 5 days is more than 44.4 µM in series [1], 4.65 µM in “PBMC cytotoxicity assay” and 23.8 µM in “PRPT cytotoxicity assay”. In the series “HEp-2 cytotoxicity assay”, this compound displayed a CC50 of more than 95.4 µM. Besides, the concentration giving a half-maximal response (EC50) in the series with HRV1a amounted to 0.097 µM; with HRV16 it was 0.164 µM.
Consider `CCC(CC)COC(=O)[C@H](C)N[P@](=O)(OC[C@@]1(C#N)O[C@@H](c2ccc3c(N)ncnn23)[C@H](O)[C@@H]1O)Oc1ccccc1` [Compound 6, 2-ethylbutyl ((S)-(((2R,3S,4R,5S)-5-(4-aminopyrrolo[2,1-f][1,2,4]triazin-7-yl)-2-cyano-3,4-dihydroxytetrahydrofuran-2-yl)methoxy)(phenoxy)phosphoryl)alaninate], for which the CC50 at 5 days in series [1] was 8.09 µM; in the series “PBMC cytotoxicity assay”, 4.79 µM; in the series “PRPT cytotoxicity assay”, 42.3 µM. Besides, the CC50 in the series “HEp-2 cytotoxicity assay” was more than 95 µM. Further, the “times more potent than compound 7, HRV16 HeLa” value with HRV16 (EC50 ratio vs compound 7) is recorded as 1.4 times. This compound also showed an EC50 in the series on HRV16 of 0.135 µM.
As to `C[C@H](N[P@](=O)(OC[C@@]1(C#N)O[C@@H](c2ccc3c(N)ncnn23)[C@H](O)[C@@H]1O)Oc1ccccc1)C(=O)OC1CCCCC1` [Formula I, cyclohexyl ((S)-(((2R,3S,4R,5S)-5-(4-aminopyrrolo[2,1-f][1,2,4]triazin-7-yl)-2-cyano-3,4-dihydroxytetrahydrofuran-2-yl)methoxy)(phenoxy)phosphoryl)-L-alaninate], the CC50 at 5 days is 27.7 µM in series [1], more than 31.6 µM in “PBMC cytotoxicity assay” and more than 84.4 µM in the series “PRPT cytotoxicity assay”. The same compound had a cytotoxic concentration (CC50) in the series “HEp-2 cytotoxicity assay” of more than 100 µM. Further, the “times more potent relative to compound 1, HRV1A HeLa” value in the series on HRV1a (EC50 ratio vs compound 1) is on record as approximately 51.1 times. In the series with HRV1a (EC50 ratio vs compound 2), the “times more potent compared to compound 2, HRV1A HeLa” value is “about 12.1 times”. In the series with HRV1a (EC50 ratio vs compound 3), the “times more potent relative to compound 3, HRV1A HeLa” value is “about 91.9 times”. Further, the “times more potent relative to compound 5, HRV1A HeLa” value in the series with HRV1a (EC50 ratio vs compound 5) is “about 203.1 times”. Further, the half-maximal effective concentration (EC50) in the series with HRV1a was determined as 0.008 µM; in the series on HRV16, 0.227 µM. The “times more potent than the compound of Formula Ib, HRV16 HeLa” value with HRV16 (EC50 ratio vs Formula Ib) was determined as 2.9 times. Besides, the “times more potent relative to compound 1, HRV16 HeLa” value in the series with HRV16 (EC50 ratio vs compound 1) is reported as “about 4.2 times”. Besides, the “times more potent relative to compound 3, HRV16 HeLa” value with HRV16 (EC50 ratio vs compound 3) is reported as “about 6.2 times”. For the same compound, the “times more potent relative to compound 4, HRV16 Hela” value in the series with HRV16 (EC50 ratio vs compound 4) was “about 4.3 times”. Further, the “times more potent relative to compound 5, HRV16 HeLa” value in the series on HRV16 (EC50 ratio vs compound 5) was “about 13.8 times”.

The record behind these values is patent publication US20250034186A1, “ANTIVIRAL COMPOUNDS” (priority 2020, published 2025).
